According to patent US20060013775A1, “Use of ppar activators for the treatment of pulmonary fibrosis” (priority 2001, published 2006):

Test system: Primary human lung fibroblasts
Assay: α-SMA positive cell (myofibroblast) count in primary lung fibroblast strains from ILD patients
Type: cell-based
Conditions: for percentage of α-SMA cells (α-SMA positive cells as a percentage of total cells): pioglitazone 3 μM, 3 days; for percentage of α-SMA cells: 10 days, vehicle 16.5 (SEM 2.7), n=4
Excerpt: Primary human lung fibroblasts were derived from patients with ILD (Idiopathic Pulmonary Fibrosis or Chronic Hypersensitivity Pneumonitis). Patients had clinical, functional and radiologic features which fulfil the diagnostic criteria for an ILD. Briefly, they had progressive dyspnea, bilateral reticulonodular images on chest roentgenogram, restrictive lung functional impairment, with decreased lung volumes and compliance, and hypoxemia at rest that worsened with exercise. The methods used to isolate and culture the lung fibroblasts and count cells are described in Wang et al, Am. J. Physiol. Lung 277:L1158-1164 (1999). In brief, lung fibroblasts were isolated by trypsin digestion of tissues minced to 1 mm^2 fragments. Fibroblast/myofibroblast strains were established in Dulbecco's modified Eagle's medium (or in Hams F-12 medium) supplemented with 10% fetal calf serum, 200 U/ml penicillin, and […] streptomycin, and were cultured in 24-well plates. All cells were cultured at 37° C. in 95% air-5% carbon dioxide. For these experiments, 2 strains were used. In order to quantify myofibroblast numbers, the myofibroblast marker alpha-smooth muscle actin (α-SMA) was measured. […] In a first experiment, the 2 strains were grown to 70-80% confluence. The cells were exposed to pioglitazone at 3 μM or drug vehicle for 3 days, after which the number of α-SMA positive cells was quantified (sample size 24) as a percentage of total cells. For one strain, the percentage of α-SMA cells was 27 (standard error mean 3.7) with control and 17 (standard error mean 2.5) in the presence of 3 μM pioglitazone. The drug effect was statistically significant (P≦0.01 Student-Newman-Keuls Multiple Comparisons Test). For the second strain, the respective values were 30.6 (standard error of mean 2.7) and 26 (standard error of mean 2.9) although the difference was not statistically significant. In a second experiment, the effect of pioglitazone on the second strain was studied again, but the exposure time was increased to 10 days and the effects of lower and higher concentrations (1 μM and 10 μM) were studied. After 10 days treatment with vehicle, the percentage of α-SMA cells was 16.5 (standard error of mean 2.7); after 10 days treatment with pioglitazone at 1 μM the percentage was 15.3 (standard error of mean 1.8); and after treatment with pioglitazone at 10 μM the percentage of α-SMA cells was 7.4 (standard error of mean 1.8) (all n=4). The reduction in α-SMA cells by 10 μM pioglitazone was significant (P≦0.05 Dunnett Multiple Comparisons Test).

**Q.** What does the source list for CCc1ccc(CCOc2ccc(CC3SC(=O)NC3=O)cc2)nc1 (stereo not shown) [pioglitazone]?
**A.** percentage of α-SMA cells (α-SMA positive cells as a percentage of total cells) (first strain, control 27 (SEM 3.7), statistically significant P≦0.01, sample size 24): 17 (standard error mean 2.5) percentage; percentage of α-SMA cells (second strain, pioglitazone 1 μM): 15.3 (standard error of mean 1.8) percentage; percentage of α-SMA cells (α-SMA positive cells as a percentage of total cells) (second strain, control 30.6 (SEM 2.7), difference not statistically significant): 26 (standard error of mean 2.9) percentage; percentage of α-SMA cells (second strain, pioglitazone 10 μM, significant P≦0.05): 7.4 (standard error of mean 1.8) percentage
